The conditions of series [1]: orally (perorally) administered, first-pass metabolism in the liver; cited from earlier work.
Series [2] concerns subjects with idiopathic RLS. The series can be described thus: Clinical trial: PLM during Wakefulness Index (PLMWI) by actigraphy during SITs. It counts as in vivo, human. The note with it: highest dose (247 μg) nasal spray. Here is the method: This example relates to a randomized, double-blind, placebo-controlled parallel-group proof-of-concept trial which assessed the efficacy, safety and tolerability of ascending doses of rotigotine nasal spray for the treatment of acute symptoms of RLS in subjects with idiopathic RLS. This was evaluated by subject rating of severity of symptoms (sensory symptoms) on a numeric symptoms severity scale and by the Periodic Limb Movement (PLM) index (motor symptoms) as measured by actigraphy following triggering of symptoms by immobilization. […] Subjects randomized to the “placebo group” received a single delivery of matching placebo nasal spray on each treatment day. • 1. […] PLM during Wakefulness Index (PLMWI) for each SIT and for specified time sections of each SIT (PLM during awake epochs/h, motor symptoms) was evaluated based on PLM measurements by means of actigraphy, recorded over the entire duration of the SIT period (pre dose and post dose SIT-0 to SIT-6, approximately 4.5 hours). RLS is usually associated with involuntary PLM occurring in wakefulness (PMLW) and sleep (PMLS) in 80-85% of RLS patients. […] A central reader was used to standardize PLM evaluation of the actigraphy measurements performed during the SIT period. […]

The conditions of series [3]: buccal, nasal or rectal administration to rats as HCl salt, compared with oral dosing; cited from earlier work.
The subject of series [4] is subjects with idiopathic RLS. The series can be described thus: Clinical trial: subject-rated severity of RLS sensory symptoms during Suggested Immobilization Tests. In kind it is in vivo, human. The conditions noted are these: for maximum mean reduction from baseline in severity scores: single delivery, 0-10 scale; for onset of action after administration: doses of 124 μg and 247 μg, intranasal. Here is the method:
This example relates to a randomized, double-blind, placebo-controlled parallel-group proof-of-concept trial which assessed the efficacy, safety and tolerability of ascending doses of rotigotine nasal spray for the treatment of acute symptoms of RLS in subjects with idiopathic RLS. This was evaluated by subject rating of severity of symptoms (sensory symptoms) on a numeric symptoms severity scale and by the Periodic Limb Movement (PLM) index (motor symptoms) as measured by actigraphy following triggering of symptoms by immobilization. […] Subjects randomized to the “placebo group” received a single delivery of matching placebo nasal spray on each treatment day. […] It has been shown that immobilization results in worsening of both motor and sensory components of RLS symptoms. […] On each treatment day, the trial medication was administered 30 minutes after the start of the pre-dose SIT-0 or as soon as the subject's severity score reaches 5 on the numeric symptom severity scale, whichever is sooner. The last scoring prior to dosing is defined as the baseline value for each individual subject. • 1. […] PLM during Wakefulness Index (PLMWI) for each SIT and for specified time sections of each SIT (PLM during awake epochs/h, motor symptoms) was evaluated based on PLM measurements by means of actigraphy, recorded over the entire duration of the SIT period (pre dose and post dose SIT-0 to SIT-6, approximately 4.5 hours). Severity of symptoms in the legs was assessed by subject ratings using a numeric symptoms severity scale at the start of each pre-dose and post-dose SIT-0 to SIT-6 and every 5 minutes during each SIT. Scores on the scale range from 0 (‘no symptoms’) to 10 (‘very severe’).

The conditions of series [5]: effect of glycerol, in vitro permeation assays; cited from earlier work.
Series [6] can be described thus: Comparative storage test of aqueous rotigotine HCl solution with/without α-cyclodextrin. In kind it is physicochemical. The note with it: storage at 60° C. for 8 weeks, solution of 1.6 mg/ml with α-cyclodextrin.
Series [7] in a line: Maximum solubility in aqueous cyclodextrin solution at room temperature, isocratic HPLC. In kind it is physicochemical. The note with it: aqueous solution and aqueous solutions containing α- or β-cyclodextrin. Here is the method:
The concentration was determined by isocratic HPLC analysis. HPLC column LiChroCART 75×4 mm, Superspher 60 RP-select B 5 μm (Merck), column temperature: 30° C., mobile phase:water/acetonitrile/methanesulfonic acid (65/35/0.05 v/v/v), flow rate: 2 ml/min, injection volume: 50 μl, detection at 220 nm, retention time approx. 1.5 min. The concentration was determined by use of an external reference solution having known concentration.

Results on three compounds are retold here after patent publication US20080274061A1, “Method for Treating a Restless Limb Disorder” (priority 2007, published 2008).

Where a name gives a salt, the structure may show the parent alone. Read-outs that look alike come from different tables or passages of the source.

As to `CCCN(CCc1cccs1)[C@H]1CCc2c(O)cccc2C1` [rotigotine, (−)-5,6,7,8-tetrahydro-6-[propyl[2-(2-thienyl)ethyl]amino]-1-naphthol], the “bioavailability (in words)” value was “close to zero” in series [1] and “improved bioavailability” in series [3]. Further, the “decrease from baseline in the PLMWI” value in series [2] is listed as “approximately 10 points”. Also, the “maximum mean reduction from baseline in severity scores” value in series [4] (62 μg nasal spray) was −0.8 points; in series [4] (124 μg nasal spray), −2.0 points; in series [4] (247 μg nasal spray), −2.3 points. Also, the “decrease in the mean severity scores” value in series [4] (doses of 124 μg and 247 μg nasal spray, SIT-1 through SIT-6, 0-10 scale) is given as “approximately 2 points”. For the same compound, the “onset of action after administration” value in series [4] came out at 10 min. Also, the “absorption through bovine nasal mucosa (in words)” value in series [5] is “enhance absorption”.

For `CCCN(CCc1cccs1)[C@H]1CCc2c(O)cccc2C1` [Rotigotine HCl], the “decrease in the rotigotine concentration” value in series [6] was -0.07 mg/mL. Also, in series [4], the “onset of action after administration” value is 10 min.

As for `CCCN(CCc1cccs1)[C@H]1CCc2c(O)cccc2C1` [Rotigotine base], the “solubility (in words)” value in series [7] is given as “practically insoluble”.
